# Assay results as given in patent US20100137449A1, “SUBSTITUTED 1,3-CYCLOPENTADIONE MULTI-TARGET PROTEIN KINASE MODULATORS OF CANCER, ANGIOGENESIS AND THE INFLAMMATORY PATHWAYS ASSOCIATED THEREWITH” (METAPROTEOMICS, LLC, priority 2007, published 2010).
# Target: T1, PRAK(h) (Homo sapiens, UniProt Q8IW41)
# T1 sequence (Q8IW41 1-473): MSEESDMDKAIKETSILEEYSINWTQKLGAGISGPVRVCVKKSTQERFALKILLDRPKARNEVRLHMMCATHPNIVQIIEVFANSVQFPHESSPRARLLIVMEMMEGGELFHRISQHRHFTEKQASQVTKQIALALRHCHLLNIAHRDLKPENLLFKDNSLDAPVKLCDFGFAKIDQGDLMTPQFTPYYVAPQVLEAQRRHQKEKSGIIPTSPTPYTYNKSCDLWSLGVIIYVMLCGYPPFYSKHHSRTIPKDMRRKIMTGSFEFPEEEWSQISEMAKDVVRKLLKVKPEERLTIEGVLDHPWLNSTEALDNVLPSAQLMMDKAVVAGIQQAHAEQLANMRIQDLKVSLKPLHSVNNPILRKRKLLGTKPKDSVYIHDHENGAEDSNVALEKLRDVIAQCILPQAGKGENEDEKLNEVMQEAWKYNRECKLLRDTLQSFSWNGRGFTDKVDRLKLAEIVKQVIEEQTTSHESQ
# Assay: KinaseProfiler Assay
structure (smiles),measurement,setting,value
"CC(C)CCC(=O)[C@]1(O)C(O)=C(C(=O)C(C)C)C(=O)[C@H]1CCC(C)C [TH2, tetrahydroiso-cohumulone]",kinase inhibition,1 μg/ml,66% of control
same,kinase inhibition,5 μg/ml,45% of control
same,kinase inhibition,25 μg/ml,19% of control
same,kinase inhibition,50 μg/ml,24% of control
same,kinase inhibition,100 μg/ml,19% of control
